From ChEMBL document CHEMBL5226369, “Tetracyclic Steroids Bearing a Bicyclo[4.4.1] Ring System as Potent Antiosteoporosis Agents from the Deep-Sea-Derived Fungus Rhizopus sp. W23” (J Nat Prod, 2023)

Columns and labels:
Format in all cases: functional, cell-based
A-431 = experiment: Antiproliferative activity against human A-431 cells by MTT assay
A549 = experiment: Antiproliferative activity against human A549 cells by MTT assay
MDA-MB-231 = experiment: Antiproliferative activity against human MDA-MB-231 cells by MTT assay
MCF7 = experiment: Antiproliferative activity against human MCF7 cells by MTT assay
PANC-1 = experiment: Antiproliferative activity against human PANC-1 cells by MTT assay
HepG2 = experiment: Antiproliferative activity against human HepG2 cells by MTT assay
HCT-116 = experiment: Antiproliferative activity against human HCT-116 cells by MTT assay
NCI-H460 = experiment: Antiproliferative activity against human NCI-H460 cells by MTT assay
NCI-H1299 = experiment: Antiproliferative activity against human NCI-H1299 cells by MTT assay
[1] = Antiproliferative activity against human QGY-7701 cells by MTT assay; conditions: QGY7701
BGC-823 = experiment: Antiproliferative activity against human BGC-823 cells by MTT assay
[2] = Antiproliferative activity against human SKGT4 cells by MTT assay
A-375 = experiment: Antiproliferative activity against human A-375 cells by MTT assay
U2OS = experiment: Antiproliferative activity against human U2OS cells by MTT assay
HL-60 = experiment: Antiproliferative activity against human HL-60 cells by MTT assay
K562 = experiment: Antiproliferative activity against human K562 cells by MTT assay
KYSE-450 = experiment: Antiproliferative activity against human KYSE-450 cells by MTT assay
PC-3 = experiment: Antiproliferative activity against human PC-3 cells by MTT assay

Measured: IC50

C/C=C/[C@H](O)[C@](C)(O)[C@H]1CC[C@H]2C3=CC(=O)[C@H]4CC(=CC[C@H](O)C4)[C@H]3CC[C@]12C
> 20 µM: A-431 | A549 | MDA-MB-231 | MCF7 | PANC-1 | HepG2 | HCT-116 | NCI-H460 | NCI-H1299 | [1] | BGC-823 | [2] | A-375 | U2OS | HL-60 | K562 | KYSE-450 | PC-3

CC(=O)/C=C/[C@@](C)(O)[C@H]1CC[C@H]2C3=CC(=O)[C@H]4CC(=CC[C@H](O)C4)[C@H]3CC[C@@]21C
> 20 µM: A-431 | A549 | MDA-MB-231 | MCF7 | PANC-1 | HepG2 | HCT-116 | NCI-H460 | NCI-H1299 | [1] | BGC-823 | [2] | A-375 | U2OS | HL-60 | K562 | KYSE-450 | PC-3

CO[C@H](/C=C(\C)[C@H]1CC[C@H]2C3=CC(=O)[C@H]4CC(=CC[C@H](O)C4)[C@H]3CC[C@]12C)[C@H](C)O
> 20 µM: A-431 | A549 | MDA-MB-231 | MCF7 | PANC-1 | HepG2 | HCT-116 | NCI-H460 | NCI-H1299 | [1] | BGC-823 | [2] | A-375 | U2OS | HL-60 | K562 | KYSE-450 | PC-3

C/C=C/[C@H](OC(C)=O)[C@](C)(O)[C@H]1CC[C@H]2C3=CC(=O)[C@H]4CC(=CC[C@H](O)C4)[C@H]3CC[C@]12C
> 20 µM: A-431 | A549 | MDA-MB-231 | MCF7 | PANC-1 | HepG2 | HCT-116 | NCI-H460 | NCI-H1299 | [1] | BGC-823 | [2] | A-375 | U2OS | HL-60 | K562 | KYSE-450 | PC-3

C/C(=C\C(=O)C(C)O)[C@H]1CC[C@H]2C3=CC(=O)[C@H]4CC(=CC[C@H](O)C4)[C@H]3CC[C@]12C (stereo not given in full)
> 20 µM: A-431 | A549 | MDA-MB-231 | MCF7 | PANC-1 | HepG2 | HCT-116 | NCI-H460 | NCI-H1299 | [1] | BGC-823 | [2] | A-375 | U2OS | HL-60 | K562 | KYSE-450 | PC-3

CC(=O)OC(C)C(O)/C=C(\C)[C@H]1CC[C@H]2C3=CC(=O)[C@H]4CC(=CC[C@H](O)C4)[C@H]3CC[C@]12C (stereo not given in full)
> 20 µM: A-431 | A549 | MDA-MB-231 | MCF7 | PANC-1 | HepG2 | HCT-116 | NCI-H460 | NCI-H1299 | [1] | BGC-823 | [2] | A-375 | U2OS | HL-60 | K562 | KYSE-450 | PC-3

CC(=O)OC(/C=C(\C)[C@H]1CC[C@H]2C3=CC(=O)[C@H]4CC(=CC[C@H](O)C4)[C@H]3CC[C@]12C)C(C)O (stereo not given in full)
> 20 µM: A-431 | A549 | MDA-MB-231 | MCF7 | PANC-1 | HepG2 | HCT-116 | NCI-H460 | NCI-H1299 | [1] | BGC-823 | [2] | A-375 | U2OS | HL-60 | K562 | KYSE-450 | PC-3

C/C(=C\C(=O)O)[C@H]1CC[C@H]2C3=CC(=O)[C@H]4CC(=CC[C@H](O)C4)[C@H]3CC[C@]12C
> 20 µM: A-431 | A549 | MDA-MB-231 | MCF7 | PANC-1 | HepG2 | HCT-116 | NCI-H460 | NCI-H1299 | [1] | BGC-823 | [2] | A-375 | U2OS | HL-60 | K562 | KYSE-450 | PC-3

COC(/C=C(\C)[C@H]1CC[C@H]2C3=CC(=O)[C@H]4CC(=CC[C@H](O)C4)[C@H]3CC[C@]12C)C(C)O (stereo not given in full)
> 20 µM: A-431 | A549 | MDA-MB-231 | MCF7 | PANC-1 | HepG2 | HCT-116 | NCI-H460 | NCI-H1299 | [1] | BGC-823 | [2] | A-375 | U2OS | HL-60 | K562 | KYSE-450 | PC-3

C/C(=C\[C@@H](O)[C@@H](C)O)[C@H]1CC[C@H]2C3=CC(=O)[C@H]4CC(=CC[C@H](O)C4)[C@H]3CC[C@]12C
> 20 µM: A-431 | A549 | MDA-MB-231 | MCF7 | PANC-1 | HepG2 | HCT-116 | NCI-H460 | NCI-H1299 | [1] | BGC-823 | [2] | A-375 | U2OS | HL-60 | K562 | KYSE-450 | PC-3

C[C@]12CC[C@@H]3C4=CC[C@H](O)C[C@H](C4)C(=O)C=C3[C@@H]1CC[C@@H]2[C@](C)(O)CC(=O)O
> 20 µM: A-431 | A549 | MDA-MB-231 | MCF7 | PANC-1 | HepG2 | HCT-116 | NCI-H460 | NCI-H1299 | [1] | BGC-823 | [2] | A-375 | U2OS | HL-60 | K562 | KYSE-450 | PC-3

C/C(=C\[C@H](O)[C@@H](C)O)[C@H]1CC[C@H]2C3=CC(=O)[C@H]4CC(=CC[C@H](O)C4)[C@H]3CC[C@]12C
> 20 µM: A-431 | A549 | MDA-MB-231 | MCF7 | PANC-1 | HepG2 | HCT-116 | NCI-H460 | NCI-H1299 | [1] | BGC-823 | [2] | A-375 | U2OS | HL-60 | K562 | KYSE-450 | PC-3

CC(=O)/C=C/[C@](C)(O)[C@H]1CC[C@H]2C3=CC(=O)[C@H]4CC(=CC[C@H](O)C4)[C@H]3CC[C@@]21C
> 20 µM: A-431 | A549 | MDA-MB-231 | MCF7 | PANC-1 | HepG2 | HCT-116 | NCI-H460 | NCI-H1299 | [1] | BGC-823 | [2] | A-375 | U2OS | HL-60 | K562 | KYSE-450 | PC-3

C/C=C/[C@@H](O)[C@](C)(O)[C@H]1CC[C@H]2C3=CC(=O)[C@H]4CC(=CC[C@H](O)C4)[C@H]3CC[C@]12C
> 20 µM: A-431 | A549 | MDA-MB-231 | MCF7 | PANC-1 | HepG2 | HCT-116 | NCI-H460 | NCI-H1299 | [1] | BGC-823 | [2] | A-375 | U2OS | HL-60 | K562 | KYSE-450 | PC-3

C/C(=C\[C@H](O)[C@H](C)O)[C@H]1CC[C@H]2C3=CC(=O)[C@H]4CC(=CC[C@H](O)C4)[C@H]3CC[C@]12C [NEOCYCLOCITRINOL B]
> 20 µM: A-431 | A549 | MDA-MB-231 | MCF7 | PANC-1 | HepG2 | HCT-116 | NCI-H460 | NCI-H1299 | [1] | BGC-823 | [2] | A-375 | U2OS | HL-60 | K562 | KYSE-450 | PC-3
